# Test results reported in EP0922458A1, “Potentiation of temozolomide by an ATase inhibitor” (CANCER RESEARCH CAMPAIGN TECHNOLOGY LIMITED, priority 1993, dated 1994).
# pIC50: −log10 of the molar value. Read-outs that look alike come from different tables or passages of the source.
# Tests used:
# [1] = tested on: MAWI; assay: Cellular uptake of [^14C]-labelled temozolomide; type: in vitro ADME, human; conditions: 4°C, 200 µM labelled drug
# Procedure: (§1) 8-carbamoyl-3-[^14C]methylimidazo[5,1-d]-1,2,3,5-tetrazin-4-(3H)-one (specific activity 26.3mCi/mmole) was kindly supplied by Dr. John Slack (Aston Molecules Ltd, Birmingham, UK). Cell suspensions (5 x 10^6/ml) were equilibrated at 4°C and treated with 200 µM of the labelled drug. 10^6 cells were pipetted into eppendorf tubes and centrifuged through 250µl of an oil mixture (4:1 "Three-in-One"/Dow Corning silicone oil). The aqueous layer was aspirated and the oil layer gently washed with a further 300 µl of saline. After centrifugation both layers were aspirated, the cell pellet dissolved in a tissue solubilizer such as Protosol® (quaternary ammonium hydroxide in toluene) and added to scintillation vials containing Optiphase® (95-99% diisopropylnaphthalene).
# [2] = tested on: ZR-75-1; assay: Cellular uptake of [^14C]-labelled temozolomide; type: in vitro ADME, human; conditions: 4°C, 200 µM labelled drug
# Procedure: as §1
# [3] = tested on: MCF-7; assay: Repeated dose temozolomide cytotoxicity; type: cell-based; conditions: Homo sapiens
# Procedure: (§2) Cell lines were routinely grown as monolayers in DMEM supplemented with 10% foetal calf serum, 25mM HEPES, glutamine and penicillin/streptomycin. Cytotoxicity studies were carried out in HEPES-free medium in a 5% CO2 atmosphere. 750-1000 cells/well were plated in 96 well plates and, after overnight incubation, were treated for 2 hours with or without 33 µM BG. Temozolomide or CCNU was then added for 1 hour in the same medium, the final DMSO concentration not exceeding 1%. […] For the repeat temozolomide dozing schedule, cells were given consecutive 24 hour treatments, with fresh medium each day. Assays were carried out at least in duplicate.
# [4] = tested on: MAWI; assay: Repeated dose temozolomide cytotoxicity; type: cell-based; conditions: Homo sapiens
# Procedure: as §2
# [5] = tested on: control XP cells; assay: Colony forming assay with BG pretreatment; type: cell-based; conditions: 10 µM BG 3 hours before, colonies after 7 days
# Procedure: (§3) Human ATase cDNA-transfected or control XP cells [Fan et al., Nucleic Acid. Res., 18:5723 (1990)] were grown in MEM and 1000 cells/well were plated. After a 3 hour incubation, temozolomide, freshly diluted into MEM, was added and the plates incubated for 5 days. Survivals were assayed as described by Morten et al., Carcinogenesis, 13:483 (1992). In the BG experiments, 300 cells were plated in triplicate onto 9cm plates and allowed to attach for 5 hours. BG was added (10 µM in MEM) 3 hours prior to the treatment with temozolomide which was freshly diluted into MEM containing 10 µM BG. After 7 days, colonies were strained with Giemsa and counted.
# [6] = tested on: human ATase cDNA-transfected XP cells (phAT); assay: Cytotoxicity in XP lines (MTT assay); type: cell-based; conditions: 120 h, XP line with ATase 1240 fmol/mg protein (phAT; printed on an unlabelled line), 5 days, without BG
# Procedure: as §3
# [7] = tested on: control XP cells (pZip); assay: Cytotoxicity in XP lines (MTT assay); type: cell-based; conditions: for pIC50: 120 h, XP line with ATase < 2 fmol/mg protein (control pZip; printed on the line 'phAT'), MTT assay, 5 days, without BG; for sensitivity of control XP cells relative to human ATase cDNA-transfected cells: pZip versus phAT XP cells, Table I
# Procedure: as §3
# [8] = target: T1, O^6-alkylguanine DNA alkyltransferase (ATase) (Homo sapiens, UniProt P16455); assay: O^6-alkylguanine DNA alkyltransferase assay of treated cells; type: cell-based; conditions: for pIC50: three-hour incubation, read-out: concentration causing 50% reduction in ATase content; for ATase content after BG: concentrations of BG used
# T1 construct: endogenous in cells; host or cells: human tumour cell lines U373, MCF-7, LOVO, MAWI (extracts of treated cells)
# T1 sequence (P16455 1-207): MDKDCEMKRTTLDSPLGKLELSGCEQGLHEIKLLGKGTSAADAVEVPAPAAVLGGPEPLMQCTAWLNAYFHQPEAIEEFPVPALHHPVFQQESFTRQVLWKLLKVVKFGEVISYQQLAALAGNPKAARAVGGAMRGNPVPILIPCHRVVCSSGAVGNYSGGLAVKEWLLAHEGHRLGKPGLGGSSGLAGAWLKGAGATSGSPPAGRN
# Procedure: This assay was carried out as described by Lee et al., Cancer Res., 51:619 (1991). Thus, varying amounts of cell extracts are incubated with DNA which contains O^6-methylguanine labelled with [^3H] in the methyl group, at preferably 37°C for 2 hours in a total volume of 300 µl of 1 mg/ml of bovine serum albumin in buffer 1. After incubation, bovine serum albumin (100µl of a 10 mg/ml solution in buffer 1) and perchloric acid (100µl of a 4 M solution) are added in rapid succession. A further 2 ml of 1M perchloric is added and the mixture heated at 75°C for 40 minutes to degrade the DNA to acid soluble material. The protein, which contains the methylated ATase, is then collected by centrifugation, washed with 4ml of 1M perchloric acid before being resuspended in 300 µl of 0.01M sodium hydroxide and dissolved in 3ml of aqueous scintillation fluid (Ecoscint A: National Diagnostics), and counted. The protein content of the cells was determined with a BioRad protein assay kit using bovine serum albumin as a standard. ATase activity is expressed as fmol methyl transferred to protein per mg of total protein in the extract.
# [9] = tested on: MCF-7; assay: Single dose cytotoxicity (sulphorhodamine protein assay); type: cell-based, human; conditions: for pIC50: Homo sapiens, MCF7, MCF-7 (breast), 1 hour drug; for Ratio IC50 [-BG]/IC50 [+BG]: MCF-7
# Procedure: as §2
# [10] = tested on: MAWI; assay: as above; type: cell-based, human; conditions: for pIC50: Homo sapiens, MAWI (colo-rectal), 1 hour drug; for Ratio IC50 [-BG]/IC50 [+BG]: MAWI
# Procedure: as §2
# [11] = tested on: U373; assay: as above; type: cell-based, human; conditions: for pIC50: Homo sapiens, U373 MG, U373 (astrocytoma), 1 hour drug; for Ratio IC50 [-BG]/IC50 [+BG]: U373
# Procedure: as §2
# [12] = tested on: ZR-75-1; assay: as above; type: cell-based, human; conditions: for pIC50: Homo sapiens, ZR-75-1 (breast), 1 hour drug; for Ratio IC50 [-BG]/IC50 [+BG]: ZR-75-1
# Procedure: as §2
# [13] = tested on: LS174T; assay: as above; type: cell-based, human; conditions: for pIC50: Homo sapiens, LS174T (colo-rectal), 1 hour drug; for Ratio IC50 [-BG]/IC50 [+BG]: LS174T
# Procedure: as §2
# [14] = tested on: LOVO; assay: as above; type: cell-based, human; conditions: for pIC50: Homo sapiens, LOVO (colo-rectal), 1 hour drug; for Ratio IC50 [-BG]/IC50 [+BG]: LOVO
# Procedure: as §2
# [15] = tested on: U87MG; assay: as above; type: cell-based, human; conditions: for pIC50: Homo sapiens, U-87 MG, U87MG (astrocytoma), 1 hour drug; for Ratio IC50 [-BG]/IC50 [+BG]: U87MG
# Procedure: as §2
# [16] = tested on: human tumour cell lines; assay: Single dose cytotoxicity, summary over the tumour cell lines; type: cell-based
# Procedure: as §2
# [17] = tested on: U373; assay: Repeated dose temozolomide cytotoxicity; type: cell-based, human; conditions: for pIC50: Homo sapiens, U373 MG, U373, DAY 4 of repeated daily 24 hour doses
# Procedure: as §2
# [18] = Stability in tissue culture medium (HPLC analysis); type: physicochemical; conditions: 37°C
# [19] = tested on: SF767 cells; conditions: WO 91/13898; cited from earlier work
smiles,measurement,setting,value
"Cn1nnc2c(C(N)=O)ncn2c1=O [temozolomide, 8-carbamoyl-3-methylimidazo[5,1-d]-1,2,3,5,-tetrazin-4-(3H)-one]",time to complete uptake,[1],≤ 5 min
same,time to complete uptake,[2],≤ 5 min
same,pIC50,"[3]; MCF7, 24 h, DAY 1, with BG",4.05
same,pIC50,"[3]; MCF7, 24 h, DAY 1, without BG",3.50
same,pIC50,"[3]; MCF7, 48 h, DAY 2, with BG",4.29
same,pIC50,"[3]; MCF7, 48 h, DAY 2, without BG",3.50
same,pIC50,"[3]; MCF7, 72 h, DAY 3, with BG",4.96
same,pIC50,"[3]; MCF7, 72 h, DAY 3, without BG",3.43
same,pIC50,"[4]; 24 h, DAY 1, with BG",3.71
same,pIC50,"[4]; 24 h, DAY 1, without BG",3.50
same,pIC50,"[4]; 48 h, DAY 2, with BG",4.23
same,pIC50,"[4]; 48 h, DAY 2, without BG",3.46
same,pIC50,"[4]; 72 h, DAY 3, with BG",4.68
same,pIC50,"[4]; 72 h, DAY 3, without BG",3.42
same,pIC50,"[4]; 96 h, DAY 4, with BG",5.14
same,pIC50,"[4]; 96 h, DAY 4, without BG",3.42
same,pIC50,"[4]; 120 h, DAY 5, with BG",6.00
same,pIC50,"[4]; 120 h, DAY 5, without BG",3.49
same,effect of BG pretreatment on cytotoxicity of temozolomide,[5],no measurable effect
same,pIC50,[6],4.00
same,pIC50,[7],4.64
same,sensitivity of control XP cells relative to human ATase cDNA-transfected cells,[7],4-5 fold
same,pIC50,[8]; LOVO,4.00 to 4.30
same,pIC50,[8]; MAWI,4.00 to 4.30
same,pIC50,[8]; MCF-7,4.00 to 4.30
same,pIC50,[8]; U373,4.00 to 4.30
same,pIC50,[9]; 2 hours 33 µM BG before,3.77
same,pIC50,[9]; without BG,3.49
same,Ratio IC50 [-BG]/IC50 [+BG],[9],1.9
same,pIC50,[10]; 2 hours 33 µM BG before,3.47
same,pIC50,[10]; without BG,2.93
same,Ratio IC50 [-BG]/IC50 [+BG],[10],3.5
same,pIC50,[11]; 2 hours 33 µM BG before,4.11
same,pIC50,[11]; without BG,3.88
same,Ratio IC50 [-BG]/IC50 [+BG],[11],1.7
same,pIC50,[12]; 2 hours 33 µM BG before,4.64
same,pIC50,[12]; without BG,4.49
same,Ratio IC50 [-BG]/IC50 [+BG],[12],1.4
same,pIC50,[13]; 2 hours 33 µM BG before,3.20
same,pIC50,[13]; without BG,3.06
same,Ratio IC50 [-BG]/IC50 [+BG],[13],1.4
same,pIC50,[14]; 2 hours 33 µM BG before,3.49
same,pIC50,[14]; without BG,3.07
same,Ratio IC50 [-BG]/IC50 [+BG],[14],2.6
same,pIC50,[15]; 2 hours 33 µM BG before,3.88
same,pIC50,[15]; without BG,3.76
same,Ratio IC50 [-BG]/IC50 [+BG],[15],1.3
same,difference in the single dose cytotoxicity between MCF-7 and the colorectal lines (LOVO and MAWI),[16]; single dose,3-4 fold
same,pIC50,[17]; with BG,4.74
same,pIC50,[17]; without BG,4.29
same,potentiation of temozolomide toxicity by BG,"[17]; U373 cells, four 24 hour doses, BG present",3 fold
"Nc1nc(OCc2ccccc2)c2[nH]cnc2n1 [BG, O^6-benzylguanine]",ATase content after BG,[8]; MAWI cells,undetectable level
same,ATase content after BG,[8]; human ATase cDNA transfected XP fibroblasts,undetectable level
same,stable in tissue culture medium,[18],at least 24 hours
"O=NN(CCCl)C(=O)NC1CCCCC1 [CCNU, lomustine]",pIC50,[9]; 2 hours 33 µM BG before,4.51
same,pIC50,[9]; without BG,4.15
same,Ratio IC50 [-BG]/IC50 [+BG],[9],2.2
same,pIC50,[10]; 2 hours 33 µM BG before,4.52
same,pIC50,[10]; without BG,3.88
same,Ratio IC50 [-BG]/IC50 [+BG],[10],4.4
same,pIC50,[11]; 2 hours 33 µM BG before,4.92
same,pIC50,[11]; without BG,4.82
same,Ratio IC50 [-BG]/IC50 [+BG],[11],1.2
same,pIC50,[12]; 2 hours 33 µM BG before,4.60
same,pIC50,[12]; without BG,4.92
same,Ratio IC50 [-BG]/IC50 [+BG],[12],0.5
same,pIC50,[13]; 2 hours 33 µM BG before,4.89
same,pIC50,[13]; without BG,4.14
same,Ratio IC50 [-BG]/IC50 [+BG],[13],5.7
same,pIC50,[14]; 2 hours 33 µM BG before,4.49
same,pIC50,[14]; without BG,4.04
same,Ratio IC50 [-BG]/IC50 [+BG],[14],2.9
same,pIC50,[15]; 2 hours 33 µM BG before,5.06
same,pIC50,[15]; without BG,4.55
same,Ratio IC50 [-BG]/IC50 [+BG],[15],3.2
same,increase in toxicity (sensitivity) after pretreatment with a single non-toxic dose of BG,"[16]; single dose, over the tumour cell lines",≤ 6 fold
same,toxicity on a molar basis relative to temozolomide,"[16]; slopes of IC50 versus ATase content, Figure 1",approximately five
CC1CCC(NC(=O)N(CCCl)N=O)CC1 (stereo not drawn) [Me CCNU],decrease in the ED50 when combined with O^6-benzylguanine,[19],3.8 fold
"NC(=O)c1ncn2c(=O)n(CCCl)nnc12 [mitozolomide, 8-carbamoyl-3-(2-chloroethyl)imidazo[5,1-d]-1,2,3,5-tetrazin-4-(3H)-one]",pIC50,[6],5.38
same,pIC50,[7],6.10
same,sensitivity of control XP cells relative to human ATase cDNA-transfected cells,[7],4-5 fold
